According to ChEMBL document CHEMBL5126510, “UCH-L3 structure and function: Insights about a promising drug target” (Eur J Med Chem, 2022):
One block for each compound: values may come before it.

Experiments:
[1] = molecular target: T1, Ubiquitin carboxyl-terminal hydrolase isozyme L3 (Homo sapiens, UniProt P15374); assay: Inhibition of UCHL3 (unknown origin) assessed as reduction in RAD51 deubiquitination incubated for 4 hrs
T1 sequence (P15374 whole entry): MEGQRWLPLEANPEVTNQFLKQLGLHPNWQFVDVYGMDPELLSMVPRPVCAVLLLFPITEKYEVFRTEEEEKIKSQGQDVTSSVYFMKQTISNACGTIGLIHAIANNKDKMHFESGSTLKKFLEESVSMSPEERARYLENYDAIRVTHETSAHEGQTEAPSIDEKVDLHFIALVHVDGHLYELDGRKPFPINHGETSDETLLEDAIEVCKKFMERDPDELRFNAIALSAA

[2] = molecular target: T1, Ubiquitin carboxyl-terminal hydrolase isozyme L3; assay: Inhibition of recombinant human UCHL3 expressed in baculovirus infected Sf9 cells using ubiquitin-AMC as substrate preincubated for 30 mins followed by substrate addition by fluorescence spectrophotometric assay
[3] = molecular target: T1, Ubiquitin carboxyl-terminal hydrolase isozyme L3; assay: Inhibition of UCHL3 (unknown origin) using Ub-AMC as substrate preincubated for 30 mins followed by substrate addition by fluorescence assay
[4] = molecular target: T2, Ubiquitin carboxyl-terminal hydrolase isozyme L1 (Homo sapiens, UniProt P09936); assay: Inhibition of UCHL1 (unknown origin) using Ub-Rho-morpholine as substrate preincubated for 30 mins followed by substrate addition by fluorescence based assay
T2 sequence (P09936 whole entry): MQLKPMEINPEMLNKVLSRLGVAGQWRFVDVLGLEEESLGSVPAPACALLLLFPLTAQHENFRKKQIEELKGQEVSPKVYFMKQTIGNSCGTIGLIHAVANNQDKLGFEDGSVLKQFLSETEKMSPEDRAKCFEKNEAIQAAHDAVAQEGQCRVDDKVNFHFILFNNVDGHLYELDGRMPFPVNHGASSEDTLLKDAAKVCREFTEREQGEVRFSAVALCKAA

[5] = molecular target: T2, Ubiquitin carboxyl-terminal hydrolase isozyme L1; assay: Inhibition of UCHL1 (unknown origin) using Ub-Rho as substrate preincubated for 30 mins followed by substrate addition
[6] = molecular target: T3, Ubiquitin carboxyl-terminal hydrolase isozyme L3 (Homo sapiens) (UniProt P15374); assay: Inhibition of UCHL3 (unknown origin) using Ub-AMC as substrate at 0.1 uM preincubated for 60 mins followed by substrate addition by fluorescence assay relative to control
T3 sequence (whole entry): T1 sequence (P15374 whole entry)

[7] = molecular target: T1, Ubiquitin carboxyl-terminal hydrolase isozyme L3; assay: Inhibition of UCHL3 (unknown origin) using ubiquitin-AMC as substrate by fluorescence assay
[8] = molecular target: T1, Ubiquitin carboxyl-terminal hydrolase isozyme L3; assay: Inhibition of UCHL3 (unknown origin)
[9] = molecular target: T1, Ubiquitin carboxyl-terminal hydrolase isozyme L3; assay: Inhibition of UCHL3 (unknown origin) incubated for 20 mins by fluorescence assay

Structure (SMILES): CCCCCCCCCCCCCCCCCCOP(=O)([O-])OC1CC[N+](C)(C)CC1 [PERIFOSINE]
IC50 [1]: 0.05 µM

Structure (SMILES): CCCCC[C@H](O)/C=C/[C@H]1C(=O)C=C[C@@H]1C/C=C\CCCC(=O)O
IC50 [3]: 10 µM

Structure (SMILES): N#CN1CCC(C(=O)Nc2ncc(N3CCOCC3)s2)C1 (stereo not given)
IC50 [4]: 0.23 µM

Structure (SMILES): N#CN1CCCC1C(=O)n1ccc2c(-c3cn[nH]c3C(F)(F)F)cccc21 (stereo not given)
IC50 [5]: 0.67 µM

Structure (SMILES): CC(=O)O/N=C1/C(=O)N(Cc2cc(Cl)ccc2Cl)c2ccc(Cl)cc21
IC50 [8]: 25 µM

Structure (SMILES): COC(=O)c1cc(-c2ccc(OC)c(OC)c2O)c(N)c(-c2ccc3c(n2)C(=O)C(N)=C(OC)C3=O)n1
IC50 [9]: 5 µM

Second part, the compound after the results:

IC50 [2]: 47 µM
Structure (SMILES): CCCCc1ccc(-c2nnc(C)n2-c2ccc(C(C)C)cc2)cc1

inhibition [6]: 60%
Structure (SMILES): O=C1C(Cc2ccc([N+](=O)[O-])cc2)CNCC1Cc1ccc([N+](=O)[O-])cc1 (stereo not given)

IC50 [7]: 2.16 µM
Structure (SMILES): O=C1c2ccccc2C(=O)c2oc(-c3ccc(F)cc3)nc21

IC50 [5]: 6.4 µM
Structure (SMILES): C#CCCn1cc(-c2cccc3c2ccn3C(=O)C2CCCN2C#N)c(C(F)(F)F)n1 (stereo not given)
